{
  "source": "patent US20220089710A1",
  "about": "“Method of Treating Signs and Symptoms of Osteoarthritis” (Pfizer Inc., priority 2019, published 2022)",
  "key": {"[1]": {"system": "patients with moderate to severe OA of the hip or knee", "assay": "Example 1: adjudicated joint safety events (RPOA, TJR)", "assay_type": "in vivo, human", "experimental": "Investigators performed musculoskeletal examinations at each study visit. Investigators evaluated patients reporting increased severe or persistent pain via eDiary lasting […] to determine if additional follow-up was needed. Post-baseline x-rays (scheduled or for cause) were assessed by the central reader for possible or probable RPOA, subchondral insufficiency fracture, primary osteonecrosis, or pathologic fracture. If warranted, magnetic resonance imaging scans were performed and/or patients were referred to an orthopedic surgeon. All cases of possible or probable joint safety events or cases of TJR for any reason were adjudicated by a blinded Adjudication Committee consisting of orthopedic surgery, rheumatology, orthopedic pathology, and musculoskeletal radiology experts."}, "[2]": {"system": "patients with osteoarthritis (OA) of the knee or hip", "settings": "for PGA-OA: LS Mean (SE) change from Baseline / PGA-OA: LS Mean Difference vs. NSAID (SE) / WOMAC Pain ≥30% reduction: % of patients / WOMAC Pain ≥30% reduction: number of patients / WOMAC Pain ≥70% reduction: % of patients / WOMAC Pain ≥70% reduction: number of patients / WOMAC Pain ≥90% reduction: % of patients / WOMAC Pain ≥90% reduction: number of patients / WOMAC Pain: LS Mean Difference vs. NSAID (SE) / WOMAC Physical Function: LS Mean (SE) change from Baseline / WOMAC Physical Function: LS Mean Difference vs. NSAID (SE) / WOMAC Pain: LS Mean (SE) change from Baseline / WOMAC Pain ≥50% reduction: % of patients / WOMAC Pain ≥50% reduction: number of patients: Week 16; for PGA-OA: LS Mean Difference vs. NSAID / PGA-OA: LS Mean change from Baseline / WOMAC Pain: LS Mean Difference vs. NSAID / WOMAC Pain: LS Mean change from Baseline / WOMAC Physical Function: LS Mean Difference vs. NSAID / WOMAC Physical Function: LS Mean change from Baseline: Week 56", "description": "Patients received a total of seven SC injections, each separated by 8 weeks and daily oral (PO) study medication BID through Week 56.\nThe Intent-to-Treat (ITT) Population included all patients who were randomized and received at least one dose of SC study drug. This analysis set was primary for all efficacy endpoints, which were analyzed according to randomization assignment. The Safety Population included all patients who received at least one dose of SC study treatment. This analysis set was primary for all safety endpoints, which were analyzed according to treatment received."}, "[3]": {"settings": "both tanezumab regimens pooled (n=464)"}},
  "note": "Like-named read-outs stand apart in the source and are kept apart here.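 For PGA-OA: LS Mean (SE) change from Baseline in this document: SC doses every 8 weeks plus twice-daily oral study drug to Week 56, efficacy assessed in all randomized patients given at least one SC dose, by assigned arm.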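 For PGA-OA: LS Mean Difference vs. NSAID (SE) in this document: SC doses every 8 weeks plus twice-daily oral study drug to Week 56, efficacy assessed in all randomized patients given at least one SC dose, by assigned arm.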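 For WOMAC Pain ≥30% reduction: % of patients in this document: SC doses every 8 weeks plus twice-daily oral study drug to Week 56, efficacy assessed in all randomized patients given at least one SC dose, by assigned arm.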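 For WOMAC Pain ≥30% reduction: number of patients in this document: SC doses every 8 weeks plus twice-daily oral study drug to Week 56, efficacy assessed in all randomized patients given at least one SC dose, by assigned arm.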",
  "data": [
    {"substance": "tanezumab: humanized immunoglobulin G Type 2 (IgG2) monoclonal antibody directed against human nerve growth factor (NGF); SEQ ID NOs: 9 or 11 and 10", "values": [
      {"measurement": "events adjudicated as RPOA (types 1 and 2): % of group", "setting": "[1]; 2.5 mg group", "value": 2.2, "unit": "%"},
      {"measurement": "events adjudicated as RPOA (types 1 and 2): % of group", "setting": "[1]; 2.5/5 mg group", "value": 0.4, "unit": "%"},
      {"measurement": "adjudicated RPOA type 1 (accelerated joint space narrowing): n", "setting": "[1]; both tanezumab regimens pooled", "value": 4},
      {"measurement": "adjudicated RPOA type 2 (damage or deterioration of the joint): n", "setting": "[1]; both tanezumab regimens pooled", "value": 2},
      {"measurement": "tanezumab-treated patients with TJRs and adjudicated RPOA", "setting": "[1]; both tanezumab regimens pooled", "value": 2},
      {"measurement": "adjudicated RPOA (type 1 or 2): % of tanezumab-treated patients", "setting": "[1]; [3]", "value": 1.3, "unit": "%"},
      {"measurement": "adjudicated RPOA (type 1 or 2): number of tanezumab-treated patients", "setting": "[1]; [3]", "value": 6},
      {"measurement": "PGA-OA: LS Mean (SE) change from Baseline", "setting": "[2]; 2.5 mg SC", "value": "−0.96 (0.04)"},
      {"measurement": "PGA-OA: LS Mean Difference vs. NSAID (SE)", "setting": "[2]; 2.5 mg SC", "value": "−0.02 (0.04)"},
      {"measurement": "WOMAC Pain ≥30% reduction: % of patients", "setting": "[2]; 2.5 mg SC", "value": 71.8, "unit": "%"},
      {"measurement": "WOMAC Pain ≥30% reduction: number of patients", "setting": "[2]; 2.5 mg SC", "value": 718},
      {"measurement": "WOMAC Pain ≥70% reduction: % of patients", "setting": "[2]; 2.5 mg SC", "value": 28.9, "unit": "%"},
      {"measurement": "WOMAC Pain ≥70% reduction: number of patients", "setting": "[2]; 2.5 mg SC", "value": 289},
      {"measurement": "WOMAC Pain ≥90% reduction: % of patients", "setting": "[2]; 2.5 mg SC", "value": 10.3, "unit": "%"},
      {"measurement": "WOMAC Pain ≥90% reduction: number of patients", "setting": "[2]; 2.5 mg SC", "value": 103},
      {"measurement": "WOMAC Pain: LS Mean Difference vs. NSAID (SE)", "setting": "[2]; 2.5 mg SC", "value": "−0.15 (0.11)"},
      {"measurement": "WOMAC Physical Function: LS Mean (SE) change from Baseline", "setting": "[2]; 2.5 mg SC", "value": "−3.27 (0.11)"},
      {"measurement": "WOMAC Physical Function: LS Mean Difference vs. NSAID (SE)", "setting": "[2]; 2.5 mg SC", "value": "−0.19 (0.11)"},
      {"measurement": "WOMAC Pain: LS Mean (SE) change from Baseline", "setting": "[2]; 2.5 mg SC, ITT, multiple imputation", "value": "−3.22 (0.11)"},
      {"measurement": "WOMAC Pain ≥50% reduction: % of patients", "setting": "[2]; 2.5 mg SC, mixed BOCF/LOCF", "value": 54.9, "unit": "%"},
      {"measurement": "WOMAC Pain ≥50% reduction: number of patients", "setting": "[2]; 2.5 mg SC, mixed BOCF/LOCF", "value": 549},
      {"measurement": "PGA-OA: LS Mean Difference vs. NSAID", "setting": "[2]; 2.5 mg SC", "value": 0.01},
      {"measurement": "PGA-OA: LS Mean change from Baseline", "setting": "[2]; 2.5 mg SC", "value": "−0.65"},
      {"measurement": "WOMAC Pain: LS Mean Difference vs. NSAID", "setting": "[2]; 2.5 mg SC", "value": "−0.02"},
      {"measurement": "WOMAC Pain: LS Mean change from Baseline", "setting": "[2]; 2.5 mg SC", "value": "−2.44"},
      {"measurement": "WOMAC Physical Function: LS Mean Difference vs. NSAID", "setting": "[2]; 2.5 mg SC", "value": "−0.05"},
      {"measurement": "WOMAC Physical Function: LS Mean change from Baseline", "setting": "[2]; 2.5 mg SC", "value": "−2.45"},
      {"measurement": "PGA-OA: LS Mean (SE) change from Baseline", "setting": "[2]; 5 mg SC", "value": "−0.97 (0.04)"},
      {"measurement": "PGA-OA: LS Mean Difference vs. NSAID (SE)", "setting": "[2]; 5 mg SC", "value": "−0.04 (0.04)"},
      {"measurement": "WOMAC Pain ≥30% reduction: % of patients", "setting": "[2]; 5 mg SC", "value": 72.9, "unit": "%"},
      {"measurement": "WOMAC Pain ≥30% reduction: number of patients", "setting": "[2]; 5 mg SC", "value": 725},
      {"measurement": "WOMAC Pain ≥50% reduction: % of patients", "setting": "[2]; 5 mg SC", "value": 56.5, "unit": "%"},
      {"measurement": "WOMAC Pain ≥50% reduction: number of patients", "setting": "[2]; 5 mg SC", "value": 562},
      {"measurement": "WOMAC Pain ≥70% reduction: % of patients", "setting": "[2]; 5 mg SC", "value": 35.0, "unit": "%"},
      {"measurement": "WOMAC Pain ≥70% reduction: number of patients", "setting": "[2]; 5 mg SC", "value": 348},
      {"measurement": "WOMAC Pain ≥90% reduction: % of patients", "setting": "[2]; 5 mg SC", "value": 12.7, "unit": "%"},
      {"measurement": "WOMAC Pain ≥90% reduction: number of patients", "setting": "[2]; 5 mg SC", "value": 126},
      {"measurement": "WOMAC Pain: LS Mean (SE) change from Baseline", "setting": "[2]; 5 mg SC", "value": "−3.33 (0.11)"},
      {"measurement": "WOMAC Pain: LS Mean Difference vs. NSAID (SE)", "setting": "[2]; 5 mg SC", "value": "−0.26 (0.11)"},
      {"measurement": "WOMAC Physical Function: LS Mean (SE) change from Baseline", "setting": "[2]; 5 mg SC", "value": "−3.39 (0.11)"},
      {"measurement": "WOMAC Physical Function: LS Mean Difference vs. NSAID (SE)", "setting": "[2]; 5 mg SC", "value": "−0.31 (0.10)"},
      {"measurement": "PGA-OA: LS Mean Difference vs. NSAID", "setting": "[2]; 5 mg SC", "value": 0.06},
      {"measurement": "PGA-OA: LS Mean change from Baseline", "setting": "[2]; 5 mg SC", "value": "−0.60"},
      {"measurement": "WOMAC Pain: LS Mean Difference vs. NSAID", "setting": "[2]; 5 mg SC", "value": 0.05},
      {"measurement": "WOMAC Pain: LS Mean change from Baseline", "setting": "[2]; 5 mg SC", "value": "−2.37"},
      {"measurement": "WOMAC Physical Function: LS Mean Difference vs. NSAID", "setting": "[2]; 5 mg SC", "value": 0.05},
      {"measurement": "WOMAC Physical Function: LS Mean change from Baseline", "setting": "[2]; 5 mg SC", "value": "−2.36"}
    ]}
  ]
}
